# Laboratory results as given in US20260364072A1, “METHODS FOR PROMOTING EXPANSION OF HUMAN CD34+ CELLS IN VIVO AND FOR PROMOTING NEURAL REGENERATION” (THE REGENTS OF THE UNIVERSITY OF CALIFORNIA, priority 2023, published 2026).
# Columns and labels:
# [1] = tested on: CD34+Lin- cells (sAML50261); assay: sAML50261 PDX mice, flow cytometry of PB, SP, BM; type: in vivo, human cells in Rag2-/-gc-/- mice; conditions: 10 mg/kg, intravenously, twice a week for 2 weeks
# Experimental: The mouse models were screened by staining the PB of each mouse with a human CD45 mAb. Mice with a threshold of human CD45^+ cells >1% were included in the treatment cohort for Rebecchini. The dosing plan involved administering Rebecsinib at a dose of 10 mg/kg, intravenously, twice a week for 2 weeks, with a total of 5 doses. Single cells were isolated from the mouse organs, including PB, SP, and BM, and subjected to staining with human stem cell markers and lineage cell markers.
# [2] = tested on: sAML LSC, MF HPC, normal HSPC; assay: Clonogenic survival and replating (self-renewal) assays in stromal co-culture; type: cell-based, human
# Text: (FIG. 28D, FIG. 28E) Quantification of colony formation (survival, FIG. 28D) and replating (self-renewal, FIG. 28E) of high-risk MF HPC and sAML LSC compared with cord blood (CB) and aged versus young normal bone marrow (a-NBM, y-NBM) controls treated with Rebecsinib at increasing concentrations. Bar graphs show data as mean±SEM and statistical analyses by pairwise t-test and dose-response assays show data as mean±SD and statistical analyses by one-way ANOVA.
# (§1) Primary patient samples and normal bone marrow controls used for functional assays are described in Table 1. Human HS5 and HS27a^45 or mouse bone marrow cells lines SL (hSCF and hIL3) and M2 (hIL3 and hG-CSF) were irradiated and then mixed at a ratio of 1:1 and incubated overnight for attachment. […] After 2 weeks primary colonies (more than 40 cells) were counted and individual multilineage colonies were plucked, cells resuspended, and re-plated again in fresh MC. Secondary colonies were counted after another 14 days. […]
# as §1, with “Human” for “Primary patient samples and normal bone marrow controls used for functional assays are described in Table 1. Human”, “resuspended” for “resuspended,”
# [3] = tested on: MCL1-L, BCL-XL, BCL-2, SF3B1, SF3B3 transcripts; assay: Splicing effects on LSC-enriched anti-apoptotic transcripts and splicing factor gene products; type: cell-based, human
# Experimental: For quantitative analysis of splice isoform expression, RNA editing rates, and whole gene expression by qRT-PCR, cells or tissue fragments were harvested in RNA lysis buffer and total RNA was extracted using RNeasy mini or micro extraction kits (QIAGEN, Germantown, MD) following the manufacturer's protocol including a DNase incubation step to digest any trace genomic DNA present. Levels of ADAR1 variants and LSC-specific transcripts were quantified by qRT-PCR as previously described.^14 RNA-editing site-specific qRT-PCR (RESSqPCR) was performed for variants in AZIN1 transcripts.^53 Additional species-specific primers were also designed to quantify intron retention rates in cells treated with Rebecsinib as a biomarker of response to RNA splicing modulation. Specifically, for the two-step SYBR-green based assays, as previously described,^7,14,53 100-1000 ng of RNA were subjected to cDNA synthesis using the SUPERSCRIPT III™ (ThermoFisher Scientific) kit followed by qRT-PCR using SYBR GreenER (ThermoFisher Scientific) master mix according to the manufacturer's recommended procedures. qRT-PCR was performed using SYBR GREENER SUPER MIX™ (Life Technologies) on BioRad iQ5™, C1000 TOUCH™, or BioRad CFX384™ instruments. […] Relative mRNA expression values were calculated using the 2^−ΔCT method, with normalization to untreated or vehicle-treated controls.^54
structure (smiles),measurement,setting,value
CC[C@H](OC)[C@@H](C)[C@H]1O[C@@H]1[C@@H](O)[C@H](C)/C=C/C=C(\C)[C@H]1OC(=O)C[C@H](O)CC[C@@](C)(O)[C@@H](OC(C)=O)/C=C/[C@@H]1C [Rebecsinib],"human CD45+ cells in PB, BM, and SP",[1],preserved human CD45^+ cells
same,CD34+Lin- cell population in SP,"[1]; p=0.0006, Student's t-test",significant inhibition
same,CD34+Lin- cell population in PB,"[1]; p=0.0015, Student's t-test",significant inhibition
same,effect on normal HSPC and mature hematopoietic progeny,"[2]; 1 μM, compared with DMSO (vehicle)",no significant differences
same,clonogenic survival and replating (self-renewal) sensitivity,"[2]; sAML LSC vs MF HPC or normal cord blood, young or aged bone marrow HPCs",greater sensitivity of secondary AML (sAML) LSC
same,"LSC-enriched anti-apoptotic transcripts, including MCL1-L, BCL-XL, and BCL-2",[3],reduces
same,"intron retention in splicing factor gene products, such as SF3B1 and SF3B3",[3],induces marked intron retention
